US20070275904A1, “CONJUGATES OF AZIRIDINYL-EPOTHILONE ANALOGS AND PHARMACEUTICAL COMPOSITIONS COMPRISING SAME” (BRISTOL-MYERS SQUIBB COMPANY, priority 2006, published 2007)
Like-named read-outs stand apart in the source and are kept apart here.

Tests used:
[1] = system: A2780 ovarian carcinoma cell line; test: cells; assay type: cell-based, human; conditions: read-out: A2780 IC5
Protocol: (§1) In vitro cytotoxicity was assessed in tumor cells using a tetrazolium-based colorimetric assay which takes advantage of the metabolic conversion of MTS (3-(4,5-dimethylthiazol-2-yl)-5-(3-carboxymethoxyphenyl)-2-([…])-2H-tetrazolium, inner salt) to a reduced form that absorbs light at 492 nm. Cells were seeded 24 hr prior to addition of the epothilone, epothilone analog, conjugated epothilone, or conjugated epothilone analog. Following a 72 hour incubation at 37° C. with serially diluted compound, MTS, in combination with the electron coupling agent phenazine methosulfate, was added to the cells. The incubation was continued for 3 hours, then the absorbancy of the medium at 492 nm was measured with a spectrophotometer to obtain the number of surviving cells relative to control populations. The results are expressed as median cytotoxic concentrations (IC50 values).
(§2) Other epothilone analogs, e.g., aziridinyl epothilones, are known in the art (see, e.g., U.S. Pat. No. 6,399,638; Regueiro-Ren, A, et al. (2001) Org. Letters. 3:2693-96) and show potent antitumor cytotoxicity. For example, an MTS assay that compared the relative cytotoxic potency of a number of epothilone analogs against a pair of taxane-resistant cancer cell lines (HCTVM46 and […]) was conducted (see Table 1). HCTVM46 is a human colon carcinoma cell line derived from the sensitive HCT116 parent line, and is resistant to taxanes due to overexpression of the 170 kD p-glyprotein drug efflux transporter. A2780Tax is a human ovarian carcinoma cell line derived from the parent A2780 line, and is resistant to paclitaxel as a result of a mutation in the tubulin amino acid sequence that impairs the ability of paclitaxel to bind.
(§3) As is shown in Table 1, various aziridinyl epothilone analogs (Compounds CC-EE) show potent antitumor activity against both the HCT116 colon and A2780 ovarian carcinoma cell lines, compared to other known antitumor agents, e.g., paclitaxel, compound AA, and epothilone B.

[2] = system: HCT116 colon carcinoma cell line; test: cells; assay type: cell-based, human; conditions: read-out: HCT116 IC50
Protocol: as §1, §2, §3

[3] = system: HCT116VM46 (HCTVM46) human colon carcinoma cell line; assay type: cell-based; conditions: R/S ratio = HCT116 IC50/HCT116VM46IC50 as printed
Protocol: as §1, §2

[4] = system: A2780Tax human ovarian carcinoma cell line; test: In vitro MTS assay, paclitaxel-resistant A2780Tax versus A2780; assay type: cell-based
Protocol: as §1, §2

[5] = target: T1, FR expressed on KB tumor cells (Homo sapiens, UniProt P15328); test: Displacement of radiolabeled folic acid from FR on KB tumor cells; assay type: binding; conditions: compared to folic acid, RA of folic acid=1.0
T1 construct: FR expressed on KB tumor cells grown to confluence; endogenous in cells; host or cells: KB tumor cells
Protocol: The binding of folate conjugates of Compound AA to FR was determined in an assay that measures displacement of radiolabeled folic acid from FR expressed on KB tumor cells grown to confluence.

[6] = system: FRα(−) M109 murine lung carcinoma; test: FRα(−) M109 parent tumor model in mice; assay type: in vivo; conditions: IV bolus, FIG. 5
Text: (§4) Female CD2F1 mice (Harlan Sprague-Dawley Inc., 20-22 g) maintained in a controlled environment and provided with water and food ad libitum were used in these studies. The murine FRα(−) Madison 109 (M109) lung carcinoma (Marks et al., 1977) and the FR-expressing (FRα(+)) 98M109 variant were used to evaluate the efficacy of the epothilone, epothilone analog (e.g., epothilone derivative), folate-epothilone conjugate, or folate-epothilone analog conjugate. In addition, the human head and neck epidermoid carcinoma KB grown in nude mice was also used for this purpose.
(§5) For administration of epothilones or epothilone analogs to mice, an excipient consisting of the following was used: CREMOPHOR®/ethanol/water (1:1:8, v/v). The compounds were first dissolved in a mixture of CREMOPHOR®/ethanol (50:50). Final dilution to the required dosage strength was made less than 1 hr before drug administration. Mice were administered the agents by bolus IV injection through the tail vein. Folate-epothilone conjugates or folate-epothilone analog conjugates were prepared in sterile phosphate buffered saline and administered to mice by IV bolus injection through the tail vein at a volume of 0.01 mL/g of mice. Treatment of each animal was based on individual body weight.
(§6) The required number of animals needed to detect a meaningful response were pooled at the start of the experiment and each was given a subcutaneous inoculation of a tumor brei (2% w/v). Tumors were allowed to grow for 4 days. On the fourth day, animals were evenly distributed to various treatment and control groups. Treated animals were checked daily for treatment related toxicity/mortality. Each group of animals was weighed before the initiation of treatment (Wt1) and then again following the last treatment dose (Wt2). The difference in body weight (Wt2−Wt1) provides a measure of treatment-related toxicity.
(§7) Tumor response was determined by measurement of tumors with a caliper twice a week, until the tumors reached a predetermined “target” size of 1 gm. Tumor weights (mg) were estimated from the formula: Tumor weight=(length×width^2)÷2
(§8) Antitumor activity was evaluated at the maximum tolerated dose (MTD) which is defined as the dose level immediately […] which excessive toxicity (i.e. more than one death) occurred. When death occurred, the day of death was recorded. […]
(§9) To estimate tumor cell kill, the tumor volume doubling time (TVDT) was first calculated with the formula: TVDT=Median time (days) for control tumors to reach target size−Median time (days) for control tumors to reach half the target size And, Log cell kill=T−C÷(3.32×TVDT) Statistical evaluations of data were performed using Gehan's generalized Wilcoxon test.

[7] = FRα(−) M109 parent tumor model in mice; assay type: in vivo; conditions: female, CD2F1, mouse, in vivo, M109 model, IV, read-out: maximum tolerated dose (MTD)
Text: as §4, §5, §6, §7, §8, §9

[8] = system: clonogenic KB cancer cells; test: Clonogenic cell survival (colony formation) assay, KB cells; assay type: cell-based, human; conditions: FIG. 3; for fold by which compound G is more potent than the named compound (IC90): KB cells, 17 hours exposure
Protocol: Cancer cells were seeded at 3.0E+05 cells in a T75 flask with 10 ml of RPMI1640 media, free of folic acid, and containing 10% fetal bovine serum and 25 mM HEPES. Cells were grown in a 37° C. incubator containing 5% CO2 for 2 days. On day 2, supernatants were removed from the flasks, and the flasks were divided into 2 groups. One group of cells were incubated with 5 ml of media containing […] of folic acid (Sigma) for 30 minutes and the others were grown in 5 ml of media without added folic acid. Cells were then treated with 20 nM of epothilone, epothilone analog, conjugated epothilone, or conjugated epothilone analog for one hour. At the end of the incubation, the drugs were removed from the flasks and the cells were washed with PBS buffer 3×. After washing, 5 ml of complete media were added into each flask, and the cell was grown in the CO2 incubator for 23 hours. The next morning, the cells were removed from the flasks by trypsinization, cell numbers were determined, and then cells were plated in a 6 well plates. Ten days after plating, colonies were stained with crystal violet and counted. The surviving fractions were determined.
This is important because it is the aziridine epothilone analog, e.g., Compound G, that mediates the antitumor effects upon release from folic acid. […] The concentration needed to kill 90% of clonogenic KB cancer cells (IC90) was determined after a drug exposure duration of 17 hours.

[9] = KB in vivo FRα(+) tumor model, xenografts in nude mice; conditions: mouse, in vivo; KB model, nude mice, IV; read-out: maximum tolerated dose (MTD)
Text: as §4
as §5, with “weight. […]” for “weight.”
(§10) Tumor response was determined by measurement of tumors with a caliper twice a week, until the tumors reached a predetermined “target” size of 1 gm. […]
as §8, §9

[10] = system: KB nasopharyngeal epidermoid carcinoma xenografts; test: as above; conditions: FIG. 4
Text: as §4
as §5, with “weight. […]” for “weight.”
as §10, §8, §9

[11] = system: FRα(+) 98M109 tumors; test: FRα(+) 98M109 tumor model, competition with a folate analog; assay type: in vivo, mice; conditions: folate analog at 20-fold excess of the dose of compound J; FIG. 6
Text: as §4, with “purpose. […]” for “purpose.”
as §10, §8, §9

[12] = Phase II clinical trials; conditions: in vivo
[13] = Mean IC50 ± SD from four separate experiments, MTS, 72 hour incubation
[14] = Homo sapiens, HCT-116, Mean IC50 ± SD from four separate experiments, MTS, 72 hour incubation

T1 sequence (P15328 25-234): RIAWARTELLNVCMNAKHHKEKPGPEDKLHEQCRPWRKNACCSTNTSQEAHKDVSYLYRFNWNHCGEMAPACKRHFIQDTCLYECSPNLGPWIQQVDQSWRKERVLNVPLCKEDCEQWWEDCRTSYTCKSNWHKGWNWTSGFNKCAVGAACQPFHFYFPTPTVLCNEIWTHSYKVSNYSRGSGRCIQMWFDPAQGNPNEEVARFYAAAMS

## C/C(=C\c1csc(C)n1)[C@@H]1C[C@@H]2O[C@]2(C)CCC[C@H](C)[C@H](O)[C@@H](C)C(=O)C(C)(C)[C@@H](O)CC(=O)O1 [Epothilone B]
[1]; [13]
  IC50: 0.23 ± 0.09 nM
[2]; [13]
  IC50: 0.4 ± 0.13 nM
[3]
  R/S Ratio (HCT116): 0.5
[4]
  R/S Ratio (A2780): 2.5

## Nc1nc2ncc(CNc3ccc(C(=O)N[C@@H](CCC(=O)O)C(=O)O)cc3)nc2c(=O)[nH]1 [folic acid]
[5]
  relative affinity (RA) for folate receptor: 1.0

## C/C(=C\c1csc(C)n1)C1C[C@H]2[C@@H](CCC[C@H](C)[C@H](O)[C@@H](C)C(=O)C(C)(C)[C@@H](O)CC(=O)O1)N2C (stereo partly drawn) [DD]
[1]; Homo sapiens, A2780, 72 h
  IC50: 0.25 ± 0.06 nM
[2]; Homo sapiens, HCT-116, 72 h
  IC50: 0.37 ± 0.13 nM
[3]
  R/S Ratio (HCT116): 0.6
[4]
  R/S Ratio (A2780): 4.1

## C/C(=C\c1csc(C)n1)[C@@H]1C[C@@H]2O[C@]2(C)CCC[C@H](C)[C@H](O)[C@@H](C)C(=O)C(C)(C)[C@@H](O)CC(=O)N1 [ixabepilone]
[6]
  antitumor activity in FRα(−) M109 parent tumor model: active at its MTD
[7]
  MTD: 5 µmol/kg
[8]
  fold by which compound G is more potent than the named compound (IC90): ~6 fold
[9]
  MTD: 5 µmol/kg

## C/C(=C\c1csc(C)n1)[C@@H]1CC2[C@@H](CCC[C@H](C)[C@H](O)[C@@H](C)C(=O)C(C)(C)[C@@H](O)CC(=O)O1)[N@@]2CCO (relative stereo) [Compound G, [1S-[1R*,3R*(E),7R*,10S*,11R*,12R*,16S*]]-7,11-Dihydroxy-17-[2-hydroxyethyl]-8,8,10,12-tetramethyl-3-[1-methyl-2-(2-methyl-4-thiazolyl)ethenyl]-4-oxa-17-azabicyclo[14.1.0]heptadecane-5,9-dione]
[8]; drug exposure duration of 17 hours
  IC90, concentration needed to kill 90% of clonogenic KB cancer cells: 4.3 nM

## C/C(=C\c1csc(C)n1)[C@@H]1C[C@H]2[C@@H](CCC[C@H](C)[C@H](O)[C@@H](C)C(=O)C(C)(C)[C@@H](O)CC(=O)O1)N2CCOC(=O)OCCSSC[C@H](NC(=O)[C@H](CC(=O)O)NC(=O)[C@H](CCCNC(=N)N)NC(=O)[C@H](CC(=O)O)NC(=O)CC[C@H](NC(=O)c1ccc(NCc2cnc3nc(N)[nH]c(=O)c3n2)cc1)C(=O)O)C(=O)O (stereo partly drawn) [Compound J]
[5]
  relative affinity (RA) for folate receptor: 0.77
[6]
  antitumor activity in FRα(−) M109 parent tumor model: poor activity at all dose levels tested
[7]
  MTD: 2.4 µmol/kg
[10]; KB model
  toxicity at the two dose levels below MTD: minimal toxicity
[10]; versus ixabepilone
  antitumor effects compared at the MTDs: superior antitumor effects than ixabepilone
[11]
  effect of co-administered folate analog on antitumor effects: protect FRα(+) 98M109 tumors from the antitumor effects of compound J

## C/C(=C\c1csc(C)n1)C1C[C@@H]2N[C@@H]2CCC[C@H](C)[C@H](O)[C@@H](C)C(=O)C(C)(C)[C@@H](O)CC(=O)O1 (stereo partly drawn) [Compound CC]
[8]
  fold by which compound G is more potent than the named compound (IC90): ~2 fold
[1]; Homo sapiens, A2780, 72 h
  IC50: 3.4 ± 1.5 nM
[2]; Homo sapiens, HCT-116, 72 h
  IC50: 4.2 ± 2.8 nM
[3]
  R/S Ratio (HCT116): 3.1
[4]
  R/S Ratio (A2780): 4.7

## C/C(=C\c1csc(CN)n1)[C@@H]1CC2O[C@]2(C)CCC[C@H](C)[C@H](O)[C@@H](C)C(=O)C(C)(C)[C@@H](O)CC(=O)O1 (stereo partly drawn) [Compound AA]
[8]
  fold by which compound G is more potent than the named compound (IC90): ~4 fold
[1]; Homo sapiens, A2780, Mean IC50 ± SD from four separate experiments, MTS, 72 hour incubation
  IC50: 1.1 ± 0.4 nM
[2]; [14]
  IC50: 1.2 ± 0.3 nM
[12]
  activity in Phase II clinical trials: has activity
[3]
  R/S Ratio (HCT116): 14.8
[4]
  R/S Ratio (A2780): 3

## CC(=O)O[C@H]1C(=O)[C@@]2(C)[C@H]([C@H](OC(=O)c3ccccc3)[C@]3(O)C[C@H](OC(=O)[C@H](O)[C@@H](NC(=O)c4ccccc4)c4ccccc4)C(C)=C1C3(C)C)[C@]1(OC(C)=O)CO[C@@H]1C[C@@H]2O [paclitaxel]
[2]; [14]
  IC50: 3.3 ± 1 nM
[4]
  R/S Ratio (A2780): 22.1
